Assays:
[1] = system: Relapsed/Refractory Multiple Myeloma (RRMM) patients; test: Clinical study of CC-93269 in RRMM: efficacy (IMWG response, MRD); type: in vivo, human
Protocol: This study involved 19 RRMM patients who had received ≥3 prior regimens without prior BCMA-directed therapy. Prior treatments included autologous stem cell transplantation, allogenic stem cell transplantation, lenalidomide, pomalidomide, bortezomib, carfilzomib, and daratumumab (DARA). All patients had MM refractory to their last line of therapy.
CC-93269 (42-TCBcv), a bispecific antibody that specifically binds to BCMA bivalently and CD3 monovalently, was administered intravenously over 2 hours on Days 1, 8, 15, and 22 for Cycles 1-3; Days 1 and 15 for Cycles 4-6; and on Day 1 for Cycle 7 and beyond, all in 28-day cycles. 14 patients received a fixed dose of CC-93269 at each of the intervals: 0.15 mg (Cohort 1, n=1), 0.5 mg (Cohort 2, n=1), 1.5 mg (Cohort 3, n=1), 3 mg (Cohort 4, n=4), 6 mg (Cohort 5, n=3) or 10 mg (Cohort 6, n=4). 5 patients received a starting dose of 6 mg on Cycle 1 Day 1, followed by a dose of 10 mg on Cycle 1 Day 8 and thereafter (Cohort 7, n=5).
Response was assessed using the International Myeloma Working Group (IMWG) Uniform Response Criteria (Rajkumar, 2011a; Kumar, 2016) at every cycle starting on Cycle 2 Day 1 and at the end of treatment. Minimal residual disease (MRD) was assessed by EuroFlow evaluation and NGS (next-generation sequencing) if evaluable. MRD negativity was reported only if a minimum sensitivity of <1 tumour cell in 10^5 nucleated cells was achieved. […]

[2] = system: H929 BCMA-expressing myeloma cell line; test: CC-93269-induced redirected lysis of H929; type: cell-based, human; conditions: E:T 1:1, 72 hours, 3 donors
Protocol: (§1) Four BCMA-expressing tumour cell lines purchased from ATCC (Manassa, Va.) (Multiple Myeloma cell lines: BCMA high-H-929 (catalog number CRL-9068), BCMA mid-SKMM2 and -MM.1S (catalog number ACC-430) and BCMA low-KMS12-PE (catalog number ACC-606)) were co-cultured with T-cells from 3 independent healthy donors (Bloodworks Northwest, Seattle, Wash.), at a E:T ratio of 1:1, i.e. 1 T cell: 1 myeloma cell. […]; 0.033-2.6 nM) for 72 hours.
(§2) FIG. 7 illustrates CC-93269-induced redirected lysis of BCMA+ tumour cell lines following co-culture with donor T cells from one healthy donor; results from all 3 independent healthy donors are summarised in Table 19. In 96-well round bottom plates and a final volume of 100 μL, 1×10^4 CellTrace Violet-labeled T-cells were plated with 1×10^4 CellTrace CFSE-labeled target cells, in the presence of varying concentrations of CC-93269 in combination with varying concentrations of dexamethasone (7-point dose response). The cocultures were incubated at 37° C. with 5% CO2. […] One-hundred percent viability was determined by the absolute cell count of live tumour cells at no addition of CC-93269 or dexamethasone; an absolute cell count of 0 live cells was used to define 100% killing of tumour cells. […] The IC50 values were calculated using non-linear regression analysis, sigmoidal dose-response using GraphPad Prism (version 5.0) software.

[3] = system: MM1S BCMA-expressing myeloma cell line; test: CC-93269-induced redirected lysis of MM1S; type: cell-based, human; conditions: E:T 1:1, 72 hours, 3 donors
Protocol: as §1, §2

[4] = system: KMS12-PE BCMA-expressing myeloma cell line; test: CC-93269-induced redirected lysis of KMS12-PE; type: cell-based, human; conditions: E:T 1:1, 72 hours, 3 donors
Protocol: as §1, §2

[5] = 12 patients treated with ≥6 mg (Cohort 5 to 7)
[6] = Patients Treated with <6 mg (n = 7)
[7] = Patients Treated with up to 10 mg (n = 9)
[8] = Patients Treated with ≥6 mg (n = 12)
[9] = Patients treated with up to 3 mg (n = 7)
[10] = Patients treated with up to 6 mg (n = 14)
[11] = patients treated with ≥6 mg (Cohort 5 to 7)

## CC-93269: bispecific antibody that specifically binds to BCMA bivalently and CD3 monovalently; SEQ ID NO:48, 55, 56, 57 (2×)
[1]; 4 patients of Cohort 4, consecutive doses of 3 mg
  responses: No responses were observed
[1]; 9 subjects, maintenance dose of 10 mg (Cohorts 6 and 7)
  preliminary overall response rate: 88.9%
[1]; [5]
  MRD negativity: 75.0%
  overall response rate (partial response or better): 83.3%
  stringent complete response (sCR): 33.3%
  very good partial response (VGPR) or better: 58.3%
[1]; All Patients (N =19)
  Best response: Minimal response (MR): 0 (0) n (%)
  Best response: Not evaluable: 2 (10.5) n (%)
  Best response: Partial response (PR): 3 (15.8) n (%)
  Best response: Progressive disease (PD): 3 (15.8) n (%)
  Best response: Stringent complete response + complete response (sCR + CR): 4 (21.1) n (%)
  Best response: Very good partial response (VGPR): 3 (15.8) n (%)
  VGPR or better: 7 (36.8) n (%)
[1]; All Patients (N =19), Cohorts 1-7
  Overall response (PR or better): 10 (52.6) n (%)
[1]; Cohorts 8 and 9, starting dose 3 mg then maintenance dose ≥6 mg
  response compared with Cohorts 1 to 4 (maintenance dose ≤3 mg): improved response
[1]; [6]
  Best response: Minimal response (MR): 0 (0) n (%)
  Best response: Not evaluable: 1 (14.3) n (%)
  Best response: Partial response (PR): 0 (0) n (%)
  Best response: Progressive disease (PD): 2 (28.6) n (%)
  Best response: Stringent complete response + complete response (sCR + CR): 0 (0) n (%)
  Best response: Very good partial response (VGPR): 0 (0) n (%)
  VGPR or better: 0 (0) n (%)
[1]; Patients Treated with <6 mg (n = 7), Cohorts 1-7
  Overall response (PR or better): 0 (0) n (%)
[1]; [7]
  Best response: Minimal response (MR): 0 n (%)
  Best response: Not evaluable: 1 (11.1) n (%)
  Best response: Partial response (PR): 1 (11.1) n (%)
  Best response: Progressive disease (PD): 0 n (%)
  Best response: Stringent complete response + complete response (sCR + CR): 4 (44.4) n (%)
  Best response: Very good partial response (VGPR): 3 (33.3) n (%)
[1]; Patients Treated with up to 10 mg (n = 9), Cohorts 1-9
  Overall response (PR or better): 8 (88.9) n (%)
[1]; [8]
  Best response: Minimal response (MR): 0 (0) n (%)
  Best response: Not evaluable: 1 (8.3) n (%)
  Best response: Partial response (PR): 3 (25.0) n (%)
  Best response: Progressive disease (PD): 1 (8.3) n (%)
  Best response: Stringent complete response + complete response (sCR + CR): 4 (33.3) n (%)
  Best response: Very good partial response (VGPR): 3 (25.0) n (%)
  MRD negative: 9 (75.0) n (%)
  VGPR or better: 7 (58.3) n (%)
[1]; Patients Treated with ≥6 mg (n = 12), Cohorts 1-7
  Overall response (PR or better): 10 (83.3) n (%)
[1]; [9]
  Best response: Minimal response (MR): 0 (0) n (%)
  Best response: Not evaluable: 1 (14.3) n (%)
  Best response: Partial response (PR): 0 (0) n (%)
  Best response: Progressive disease (PD): 2 (28.6) n (%)
  Best response: Stringent complete response + complete response (sCR + CR): 0 (0) n (%)
  Best response: Very good partial response (VGPR): 0 (0) n (%)
[1]; Patients treated with up to 3 mg (n = 7), Cohorts 1-9
  Overall response (PR or better): 0 (0) n (%)
[1]; [10]
  Best response: Minimal response (MR): 0 (0) n (%)
  Best response: Not evaluable: 3 (21.4) n (%)
  Best response: Partial response (PR): 3 (21.4) n (%)
  Best response: Progressive disease (PD): 5 (35.7) n (%)
  Best response: Stringent complete response + complete response (sCR + CR): 1 (7.1) n (%)
  Best response: Very good partial response (VGPR): 1 (7.1) n (%)
[1]; Patients treated with up to 6 mg (n = 14), Cohorts 1-9
  Overall response (PR or better): 5 (35.7) n (%)
[1]; patients treated with up to 6 mg (Cohorts 5, 8, and 9)
  preliminary overall response rate: 35.7%
[1]; [11]
  median time to response: 4.2 weeks
  time to response, range: 4.0-13.1 weeks
[2]; 1 μM Dex co-treatment
  % live tumour cells, Mean: 2.11%
[2]; DMSO
  % live tumour cells, Mean: 1.61%
[3]; 1 μM Dex co-treatment
  % live tumour cells, Mean: 0.98%
[3]; DMSO
  % live tumour cells, Mean: 1.5%
[4]; 1 μM Dex co-treatment
  % live tumour cells, Mean: 5.8%
[4]; DMSO
  % live tumour cells, Mean: 3.71%
